Reference: US20180209956A1, “HTS Assay for Identifying Small Molecule Inhibitors of RAD52 and Uses of Identified Small Molecule Inhibitors for Treatment and Prevention of BRCA-Deficient Malignancies” (University of Iowa Research Foundation, priority 2015, published 2018)
Where a name gives a salt, the structure may show the parent alone. Read-outs that look alike come from different tables or passages of the source.

Legend:
[1] = target: T1, RAD52-ssDNA interaction (Homo sapiens, UniProt P43351); test: FRET-based ssDNA binding and wrapping assay (RAD52-Cy3-dT30-Cy5 complex); settings: for IC50: read-out: IC50 (DNA binding); for IC50 range for ssDNA binding and wrapping, in words: summary of Table 1
T1 construct: made in house
T1 sequence (P43351 1-418): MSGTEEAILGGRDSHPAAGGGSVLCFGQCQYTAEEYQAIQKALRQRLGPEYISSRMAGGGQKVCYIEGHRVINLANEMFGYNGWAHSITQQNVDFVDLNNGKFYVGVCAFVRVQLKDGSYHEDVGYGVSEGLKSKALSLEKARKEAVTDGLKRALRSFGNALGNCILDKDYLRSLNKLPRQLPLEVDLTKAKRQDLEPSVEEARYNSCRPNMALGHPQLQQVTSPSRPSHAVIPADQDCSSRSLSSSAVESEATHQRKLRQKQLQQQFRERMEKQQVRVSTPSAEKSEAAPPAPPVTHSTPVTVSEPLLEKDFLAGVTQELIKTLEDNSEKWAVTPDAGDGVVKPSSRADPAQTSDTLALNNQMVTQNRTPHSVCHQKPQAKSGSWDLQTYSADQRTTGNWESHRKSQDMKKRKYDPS
Protocol: We titrated increasing amounts of each compound into a cuvette containing preformed stoichiometric RAD52-Cy3-dT30-Cy5 complexes (1 nM Cy3-dT30-Cy5 and 8 nM RAD52). […] At each concentration of the compound, the FRET signal was adjusted for the change in Cy3 and Cy5 fluorescence in the presence of the compound, but in the absence of protein.
FRET-based DNA binding and annealing assays: FRET-based ssDNA binding, dsDNA binding, and annealing assays were carried out as previously described (Grimme et al., 2010, Grimme and Spies, 2011) using Cary Eclipse spectrofluorimeter (Varian) at 25° C. in buffer containing 30 mM Tris-Acetate pH7.5, 1 mM DTT, and 0.1 mg/mL BSA. Cy3 dye was excited at 530 nm and its emission was monitored at 565 nm. Emission of Cy5 acceptor fluorophore excited through the energy transfer from Cy3 donor is monitored at 660 nm simultaneously with emission of Cy3 dye. Both the excitation and the emission slit widths were set to 10 nm.
All experiments were performed in triplicates, and the data are shown as averages and standard deviations for three independent measurements. To remove possible experimental artifacts associated with chromogenic or fluorogenic compounds, as well as with the compounds that may quench or enhance Cy3 or Cy5 fluorescence, we also performed control titrations whereby we titrated each compound into 1 nM Cy3-dT30-Cy5 in the absence of RAD52. For each compound concentration we subtracted the difference in the FRET signal in the presence and absence of the compound from the respective FRET signal in the presence of RAD52. The FRET signal corrected for the compound fluorescence was calculated using the equation: […]
as previously described (Grimme et al., 2010, Grimme and Spies, 2011) and plotted as a function of compound concentration and fitted to the following inhibition model”
where FRET0 is the initial FRET value of RAD52-ssDNA complex in the absence of the compound and FRETmin is the FRET value at complete inhibition. FRET values were calculated as an average of three or more independent annealing reactions plotted against the concentration of the compound. Inhibition of the RAD52-dsDNA interaction was assayed in a similar experiment, except the stoichiometric complexes containing 1 nM molecules of Cy3-Oligo28-Cy5 duplex DNA and 10 nM RAD52. […] In all experiments, the FRET values for each data point were corrected for the effects of the compounds on the respective substrate in the absence of RAD52.

[2] = target: T2, RAD52-mediated ssDNA annealing (Homo sapiens, UniProt P43351); test: FRET-based RAD52-mediated ssDNA annealing assay; format: biochemical; settings: Table 1, read-out: IC50 Annealing Extent
T2 construct: made in house
T2 sequence (P43351 1-418): T1 sequence (P43351 1-418)
Text: These assays utilize two complementary single stranded 28-nucleotide-long substrates, which contain either Cy3 (T-28) or Cy5 (P-28) incorporated into the middle of the respective DNA strand. When the substrates are annealed by RAD52, the Cy3 and Cy5 dyes are separated by 3 base pairs and yield a high FRET signal (FIG. 2 Supplement 2). […] The annealing reactions were initiated by mixing two half reactions and observing the change in FRET over time in the presence of varying concentrations of small molecules. An increasing FRET value over time indicates formation of the dsDNA duplex which brings the two dyes in close proximity (FIG. 2 Supplement 2). Fitting the annealing data to a double exponential allowed us to calculate and compare the final extent of annealing at varying concentrations of each compound compared to RAD52 alone. We plotted the final extent of annealing vs the concentration of the compound and calculated an IC50 of annealing inhibition.
Annealing of complementary oligonucleotides by RAD52 was monitored under identical conditions as the binding assays described above. For each assay, the reaction master mixture containing 8 nM RAD52 protein in the presence and absence of the compounds at varying concentrations was prepared at room temperature and divided into two half reactions. Following baseline buffer and protein measurements, 0.5 nM of T-28 ssDNA substrate was added to the reaction cuvette and the signal was allowed to stabilize. The annealing reaction was initiated upon addition of the second half-reaction pre-incubated with 0.5 nM P-28 ssDNA substrate. The fluorescence of Cy3 and Cy5 were measured simultaneously over the reaction time course (500 s). FRETapp values were calculated as an average of three or more independent annealing reactions plotted against time (s). The average FRET values were fitted to a double exponential to calculate the final extent of annealing using Graphpad Prism4 software. The calculated annealing extent was plotted as a function of compound concentration and fitted to the same model as we used to determine IC50 values for the inhibition of DNA annealing.

[3] = Solubility observed during testing; format: physicochemical
[4] = Table 1, ssDNA, 1 nM Cy3-dT30-Cy5, 8 nM RAD52
[5] = Table 2, methods similar to Example 1

Row | Compound | FRET value at saturation ([1]; Table 2) | IC50 [1, 5] [µM] | FRET value at saturation ([1]; Table 1) | IC50 [1, 4] [µM] | IC50 range for ssDNA binding and wrapping, in words [1] | further results
1 | C=C1c2cccc(O)c2C(=O)C2=C(O)[C@]3(O)C(=O)C(C(N)=O)=C(O)[C@@H](N(C)C)[C@@H]3[C@@H](O)[C@H]12 [Compound 3, Methacycline Hydrochloride, reference compound] |  |  | 0.47 ± 0.01 | 2 ± 0.17 | micro-molar range | IC50 [2]: 3.8 ± 0.2 µM
2 | O=C(O[C@@H]1Cc2c(O)cc(O)cc2O[C@@H]1c1ccc(O)c(O)c1)c1cc(O)c(O)c(O)c1 [Compound 5, (−)-Epicatechin gallate] |  |  | 0.41 ± 0.004 | 0.255 ± 0.016 | nano-molar range | IC50 [2]: 20 ± 0.7 µM
3 | Oc1cc(O)c2c(c1)O[C@H](c1ccc(O)c(O)c1)[C@H](O)C2 [Compound 7, (−)-Epicatechin] |  |  | 0.51 ± 0.01 | 1.45 ± 0.11 | micro-molar range | 
4 | NCCc1cc(O)c(O)cc1O [Compound 14, Oxidopamine] |  |  | 0.50 ± 0.01 | 0.779 ± 0.051 | nano-molar range | 
5 | O=C1c2ccc(O)c(O)c2C(=O)c2c(O)ccc(O)c21 [Compound 15, Quinalizarin] |  |  | 0.51 ± 0.01 | 0.563 ± 0.04 | nano-molar range | IC50 [2]: 5.6 ± 0.6 µM
6 | COc1cc(N)c(Cl)cc1C(=O)N[C@H]1CCN(CCCOc2ccc(F)cc2)C[C@H]1OC [Compound 16, Cisapride Monohydrate, reference compound] |  |  | 0.50 ± 0.01 |  |  | 
7 | CC1(C)C(=O)C=C[C@@]2(C)C1=C(O)C(=O)[C@]1(C)[C@@H]2CC[C@@]2(C)[C@H](c3ccoc3)C[C@H]3O[C@]321 [Compound 17, Cedrelone] |  |  |  | > 300 | high micro-molar range | 
8 | O=c1c(O)c(-c2ccc(O)c(O)c2)oc2c(O)c(O)cc(O)c12 [Compound 19, Gossypetin] |  |  | 0.49 ± 0.01 | 0.913 ± 0.058 | nano-molar range | IC50 [2]: 6 ± 2.3 µM
9 | CC(C)(O)C1Cc2cc3ccc(=O)oc3cc2O1 (centres unmarked) [Compound R24, 2-(1-hydroxy-1methylethyl)-2,3-dihydro-7H-furo[3,2-g]crhomen-7-one] |  |  |  |  |  | IC50 (DNA binding) [1, 5]: No inhibition
10 | O=c1c2ccccc2nc(CSc2ncnc3[nH]cnc23)n1-c1cccc(C(F)(F)F)c1 [Compound R27, 2-[(9H-purin-6-ylthio)methyl]-3-[3-(trifluoromethyl)phenyl]-4(3H)-qhinazolinone] |  |  |  |  |  | Solubility ([3]; 30 mM Tris-Acetate pH 7.5, 1 mM DTT at 115 μM): Insoluble in 30 mM Tris-Acetate pH 7.5, 1 mM DTT at 115 μM
11 | CCOc1cc(C(Nc2cc(C)ccn2)c2ccc3ccc(C)nc3c2O)ccc1OC (centres unmarked) [Compound R28, 7-{(3-ethoxy-4-methyoxyphenyl)[(4-methyl-2-pyridinyl)amino]methyl}-2-methyl-8-quinolinol] |  |  |  |  |  | Solubility ([3]; 30 mM Tris-Acetate pH 7.5, 1 mM DTT at 10 μM): Insoluble in 30 mM Tris-Acetate pH 7.5, 1 mM DTT at 10 μM
12 | CCOc1ccccc1NC(=O)c1c(NC(=O)Cc2ccc(OC)cc2)sc2c1CCC2 [Compound R29, N-(2-ethoxyphenyl)-2-{[(4-methoxyphenyl)acetyl]amino)-5,6-dihydro-4H-cyclopenta[b]thiophene-3-carboxamide] |  |  |  |  |  | Solubility ([3]; DMSO at 25 mM): Compound is insoluble in DMSO at 25 mM
13 | Asiatic Acid [Compound 18] |  |  |  | > 800 | high micro-molar range | IC50 [2]: > 100 µM
14 | Rolitetracycline [Compound ‘4’, reference compound] |  |  | 0.56 ± 0.04 | 29 ± 8.2 | mid micro-molar range | 

Second part, led by results:

Row | FRET value at saturation ([1]; Table 2) | IC50 [1, 5] [µM] | Compound | FRET value at saturation ([1]; Table 1) | IC50 [1, 4] [µM] | IC50 range for ssDNA binding and wrapping, in words [1] | further results
15 | 0.49 ± 0.01 | 0.938 ± 0.012 | Cc1ccc2c(c1)C(=O)CC(O)(C(F)(F)F)O2 (centres unmarked) [Compound R20, 2-hydroxy-6-methyl-2-(trifluoromethyl)-2,3-dihydro-4H-chromen-4-one] |  |  |  | 
16 | 0.483 ± 0.01 | 76 ± 5.57 | O/N=C1/CC(O)(C(F)(F)F)Oc2ccccc21 (centres unmarked) [Compound R21, 2-hydroxy-2-(trifluoromethyl)-2,3-dihydro-4H-chromen-4-one oxime] |  |  |  | 
17 | 0.49 ± 0.01 | 184 ± 12 | CC1(C)COC(O)(C(F)(F)F)CC1=O (centres unmarked) [Compound R22, 2-hydroxy-5,5-dimethyl-2-(trifluoromethyl)tetrahydro-4H-pyran-one] |  |  |  | 
18 | 0.39 ± 0.01 | 84.1 ± 1.04 | CC(O)CC1(O)C(=O)N(C)c2ccccc21 (centres unmarked) [Compound R23, 3-hydroxy-3-(2-hydroxypropyl)-1-methyl-1,3-dihydro-2H-indol-2-one] |  |  |  | 
19 | 0.45 ± 0.01 | 1.6 ± 0.15 | c1ccc(CSc2nnc3c(n2)OC(c2ccc4c(c2)OCO4)Nc2ccccc2-3)cc1 (centres unmarked) [Compound R25, 6-(1,3-benzodioxol-5-yl)-3-(benzylthio)-6,7-dihydro[1,2,4]triazino[5,6-d][3,1]benzoxazepine] |  |  |  | 
20 | 0.46 ± 0.01 | 1.9 ± 0.5 | CCOc1ccc(C2Nc3ccccc3-c3nnc(SCc4ccccc4)nc3O2)cc1 (centres unmarked) [Compound R26, 3-(benzylthio)-6-(4-ethoxyphenyl)-6,7-dihydro[1,24]triazino[5,6-d][3,1]benzoxazepine] |  |  |  | 
21 | 0.59 ± 0.01 | 1.3 ± 0.19 | COc1cc(C2C(C(=O)OCC3CCCO3)=C(C)NC3=C2C(=O)CC(C)(C)C3)ccc1O (centres unmarked) [Compound R30, Tetrahydro-2-furanylmethyl 4-(4-hydroxy-3-methoxyphenyl)-2,7,7-trimethyl-5oxo-1,4,5,6,7,8-hexahydro-3-quinolinecarboxylate] |  |  |  | 
22 | 0.45 ± 0.01 | 1.25 ± 0.34 | COc1ccc(C(=O)Nc2ccccc2C(=O)NC(C(=O)Nc2ccccc2)C(C)C)cc1 (centres unmarked) [Compound R32, N-[1-(anilinocarbonyl)-2-methylpropyl]-2-[(4-methoxybenzoyl)amino]benzamide] |  |  |  | 
23 | 0.56 ± 0.01 | 0.849 ± 0.21 | COc1cc(/C=N/NC(=O)CCC(C)O)ccc1O (centres unmarked) [Compound R33, 4-hydroxy-N′-(4-hydroxy-3-methoxybenzyliden)pentanohydrazide] |  |  |  | 
